22 compounds from patent publication US10787425B2, “Thiazolidinedione derivative and use thereof” (INDUSTRY-ACADEMIC COOPERATION FOUNDATION CHOSUN UNIVERSITY, priority 2016, dated 2020) can be followed below.

A word on the IC50: it is the concentration that inhibits the measured activity by half.

Assay [1] concerns A549 cells. Put plainly: Measurement of PGE2 concentration in A549 cell medium (ELISA). The assay is classed as cell-based, human. The conditions noted are these: for Increment %: PGE2 concentration versus PBS control, 5 μM, 12 hours; for PGE2 concentration: inhibitor 5 μM, medium collected after 12 hours, ELISA. As to the method:
A549 cells were subcultured in RPMI 1640 medium (containing+8% fetal bovine serum (FBS) and antibiotic-antimycotic (AA)) for one week, and then, inoculated in a 6-well plate at 2.5×10^5 cells/mL (5×10^5 cells/well) and cultured for 24 hours in a 5% CO2 incubator at a temperature of 37° C. A549 cells are adenocarcinomic human alveolar basal epithelial cells which are derived from lung tissues. When cells were grown to about 80% confluence, a 15-PGDH inhibitor in 1×PBS buffer was injected at a concentration of 5 μM. To compare the results, the same amount of 1×PBS buffer was injected into a negative control, and, the treated cells were cultured in 5% CO2 incubator. After 12 hours, the medium was collected and the collected medium was assayed to measure PGE2 concentration by using an ELISA Kit (Abcam) according to the manufacturer's instructions. The concentration may be expressed as an exact value by plotting the calibration curve by using the absorbance value after diluting the standard in the medium by concentration.
Background: ELISA stands for enzyme-linked immunosorbent assay.

Assay [2] addresses 15-PGDH (Homo sapiens (Human), UniProt P15428). The assay can be described thus: 15-PGDH inhibitory activity (NADH at 340 nm). The assay is classed as biochemical. The conditions noted are these: concentration inhibiting 50% of 15-PGDH activity; purified 15-PGDH, 21 μM PGE2, 0.25 mM NAD+. As to the method: The 15-PGDH cDNA plasmid containing the BamHI of the pGEX-2T expression vector and EcoRI restriction enzyme sites was transfected into E. coli BL-21 LysS by using conventional methods used in the art. Then, the transfected cells were cultured in an LB medium (500 ml) containing 50 μg/ml of ampicillin at a temperature of 37° C. and at a rate of 220 rpm until the OD600 reached 0.6. Then, isopropyl beta-D-thiogalactoxide (1 mM) was added and the cells were further cultured at the temperature of 25° C. for 12 hours. The cells were then centrifuged at the gravity of 4,000 g for 30 minutes at a temperature of 4° C. to collect a cell pellet. The cell pellet was dissolved in 20 ml of cell lysis buffer (containing 1×PBS buffer (pH 7.4): 1 mM EDTA and 0.1 mM DTT) and sonicated at a temperature of 4° C. for 14×10 s. The digested cells were centrifuged at the gravity of 4,000 g for 20 minutes at a temperature of 4° C. The supernatant was then slowly loaded onto a glutathione-sepharose 4B column equilibrated at a temperature of 4° C. with cell lysis buffer [containing 1×PBS buffer (pH 7.4), 1 mM EDTA, and 0.1 mM DTT]. Washing was performed thereon by using a dissolution buffer until the OD280 reached 0.005 or less. Then, 15-PGDH was eluted from the glutathione-sepharose 4B column at room temperature for 5 minutes by using an elution buffer [containing 50 mM Tris-HCl (pH 8.0), 10 mM reduced glutathione, 1 mM EDTA, and 0.1 mM DTT). The concentration of the purified enzyme was measured, and the purification level thereof was confirmed by SDS-PAGE.
That is, the cells were treated with a solution including 50 mM Tris-HCl (pH 7.5), 0.1 mM DTT, 0.25 mM (NAD+), 10 μg of purified 15-PGDH enzyme, 21 μM PGE2. and various concentrations (0.0001 μM to 64 μM) of the derivative compound according to the present disclosure. In this case, the total volume of the solution was 2 ml. Then, the absorbance of the reaction mixture was recorded at the wavelength of 340 nm. To measure the activity of the derivative compounds according to the present disclosure, which is an inhibitor of 15-PGDH, the average value of NADH absorbance at 340 nm at various concentrations was obtained from a standard curve.

Sequence of 15-PGDH (P15428 whole entry): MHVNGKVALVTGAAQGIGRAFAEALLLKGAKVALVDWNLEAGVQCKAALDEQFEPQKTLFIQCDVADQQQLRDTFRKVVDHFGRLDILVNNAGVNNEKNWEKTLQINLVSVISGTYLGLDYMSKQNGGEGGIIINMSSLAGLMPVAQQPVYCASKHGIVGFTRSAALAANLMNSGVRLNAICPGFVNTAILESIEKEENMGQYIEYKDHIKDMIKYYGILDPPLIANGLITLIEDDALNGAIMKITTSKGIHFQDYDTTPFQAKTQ

Take `O=C(CCCCc1ccccc1)Oc1ccc(/C=C2\SC(=O)NC2=O)cc1Cl` [Compound 15, (Z)-2-chloro-4-((2,4-dioxothiazolidin-5-ylidene)methyl)phenyl 5-phenylpentanoate]: in assay [1], the Increment % is on record as 84.11% and the PGE2 concentration is 220.3344 pg/mL. Besides, in assay [2], the IC50 worked out at 0.044 µM.

Regarding `O=C1NC(=O)/C(=C/c2ccc(OC(=O)C3CC3)c(Br)c2)S1` [Compound 16, (Z)-2-bromo-4-((2,4-dioxothiazolidin-5-ylidene)methyl)phenyl cyclopropanecarboxylate], in assay [1], the Increment % came to 12.12% and the PGE2 concentration was found to be 283.7043 pg/mL. The IC50 in assay [2] is 0.22 µM.

For `O=C1NC(=O)/C(=C/c2ccc(OC(=O)C3CCC3)c(Br)c2)S1` [Compound 17, (Z)-2-bromo-4-((2,4-dioxothiazolidin-5-ylidene)methyl)phenyl cyclobutanecarboxylate], in assay [1], the Increment % was 56.34% and the PGE2 concentration stood at 395.597 pg/mL. In assay [2], this compound returned an IC50 of 0.106 µM.

As to `O=C1NC(=O)/C(=C/c2ccc(OC(=O)C3CCCC3)c(Br)c2)S1` [Compound 18, (Z)-2-bromo-4-((2,4-dioxothiazolidin-5-ylidene)methyl)phenyl cyclopentanecarboxylate], in assay [1], the Increment % is −21.7% and the PGE2 concentration was 198.1274 pg/mL. In addition, it took 0.05 µM to reach half-maximal inhibition in assay [2] (IC50).

Regarding `O=C(CC1CCCC1)Oc1ccc(/C=C2\SC(=O)NC2=O)cc1Br` [Compound 19, (Z)-2-bromo-4-((2,4-dioxothiazolidin-5-ylidene)methyl)phenyl 2-cyclopentylacetate], in assay [1], the Increment % is −8.11% and the PGE2 concentration is 232.5151 pg/mL. Further, the IC50 in assay [2] came to 0.0198 µM.

As for `O=C(CCC1CCCC1)Oc1ccc(/C=C2\SC(=O)NC2=O)cc1Br` [Compound 20, (Z)-2-bromo-4-((2,4-dioxothiazolidin-5-ylidene)methyl)phenyl 3-cyclopentylpropanoate], in assay [1], the Increment % worked out at 227.32% and the PGE2 concentration was found to be 828.2384 pg/mL. The same compound yielded an IC50 in assay [2] of 0.0158 µM.

Regarding `O=C1NC(=O)/C(=C/c2ccc(OC(=O)C3CCCCC3)c(Br)c2)S1` [Compound 21, (Z)-2-bromo-4-((2,4-dioxothiazolidin-5-ylidene)methyl)phenyl cyclohexanecarboxylate], in assay [1], the Increment % is reported as 62.47% and the PGE2 concentration amounted to 411.1081 pg/mL. In addition, in assay [2], the midpoint of inhibition, the IC50, lay at 0.0376 µM.

Take `O=C(CC1CCCCC1)Oc1ccc(/C=C2\SC(=O)NC2=O)cc1Br` [Compound 22, (Z)-2-bromo-4-((2,4-dioxothiazolidin-5-ylidene)methyl)phenyl 2-cyclohexylacetate]: in assay [1], the Increment % was 89.77% and the PGE2 concentration stood at 480.187 pg/mL. 0.0206 µM corresponded to half-maximal inhibition in assay [2] (IC50).

With `O=C(CCCC1CCCCC1)Oc1ccc(/C=C2\SC(=O)NC2=O)cc1Br` [Compound 24, (Z)-2-bromo-4-((2,4-dioxothiazolidin-5-ylidene)methyl)phenyl 4-cyclohexylbutanoate], in assay [1], the Increment % was 299.32% and the PGE2 concentration was 1010.425 pg/mL. In assay [2], 0.0154 µM corresponded to half-maximal inhibition (IC50).

Turning to `O=C(CCCCC1CCCCC1)Oc1ccc(/C=C2\SC(=O)NC2=O)cc1Br` [Compound 25, (Z)-2-bromo-4-((2,4-dioxothiazolidin-5-ylidene)methyl)phenyl 5-cyclohexylpentanoate], in assay [1], the Increment % is reported as 5.34% and the PGE2 concentration stood at 266.5484 pg/mL. This compound returned an IC50 in assay [2] of 0.0263 µM.

For the compound `O=C(O)c1ccccc1.O=C1NC(=O)/C(=C/c2ccc(OC(=O)c3ccccc3)c(Br)c2)S1` [Compound 26, (Z)-2-bromo-4-((2,4-dioxothiazolidin-5-ylidene)methyl)phenylbenzoate], in assay [1], the Increment % is −11.12% and the PGE2 concentration came to 175.2752 pg/mL. This compound returned an IC50 in assay [2] of 0.0254 µM.

On to `O=C(Cc1ccccc1)Oc1ccc(/C=C2\SC(=O)NC2=O)cc1Br` [Compound 27, (Z)-2-bromo-4-((2,4-dioxothiazolidin-5-ylidene)methyl)phenyl 2-phenylacetate], for which, in assay [1], the Increment % is recorded as 99.65% and the PGE2 concentration was found to be 393.7184 pg/mL. The same compound gave an IC50 in assay [2] of 0.0406 µM.

As for `O=C(CCc1ccccc1)Oc1ccc(/C=C2\SC(=O)NC2=O)cc1Br` [Compound 28, (Z)-2-bromo-4-((2,4-dioxothiazolidin-5-ylidene)methyl)phenyl 3-phenylpropanoate], in assay [1], the Increment % is recorded as 190.32% and the PGE2 concentration worked out at 572.5235 pg/mL. In assay [2], this compound gave a half-maximal inhibitory concentration (IC50) of 0.0284 µM.

Consider `O=C(CCCc1ccccc1)Oc1ccc(/C=C2\SC(=O)NC2=O)cc1Br` [Compound 29, (Z)-2-bromo-4-((2,4-dioxothiazolidin-5-ylidene)methyl)phenyl 4-phenylbutanoate], for which, in assay [1], the Increment % is on record as 367.81% and the PGE2 concentration stood at 922.5414 pg/mL. Moreover, 0.0145 µM corresponded to half-maximal inhibition in assay [2] (IC50).

Regarding `O=C(CCCCc1ccccc1)Oc1ccc(/C=C2\SC(=O)NC2=O)cc1Br` [Compound 30, (Z)-2-bromo-4-((2,4-dioxothiazolidin-5-ylidene)methyl)phenyl 5-phenylpentanoate], in assay [1], the Increment % came to 42.35% and the PGE2 concentration is 280.7203 pg/mL. Besides, in assay [2], the IC50 was found to be 0.0235 µM.

Regarding `COc1cc(/C=C2\SC(=O)NC2=O)ccc1OC(=O)C1CC1` [Compound 31, (Z)-4-((2,4-dioxothiazolidin-5-ylidene)methyl)-2-methoxyphenyl cyclopropanecarboxylate], in assay [1], the Increment % is given as 1.13% and the PGE2 concentration is 199.4327 pg/mL. The compound further gave an IC50 in assay [2] of 1.1 µM.

Regarding `COc1cc(/C=C2\SC(=O)NC2=O)ccc1OC(=O)C1CCC1` [Compound 32, (Z)-4-((2,4-dioxothiazolidin-5-ylidene)methyl)-2-methoxyphenyl cyclobutanecarboxylate], in assay [1], the Increment % is given as 60.62% and the PGE2 concentration is 316.7495 pg/mL. This compound also registered a half-maximal inhibitory concentration (IC50) in assay [2] of 1.12 µM.

For the compound `COc1cc(/C=C2\SC(=O)NC2=O)ccc1OC(=O)C1CCCC1` [Compound 33, (Z)-4-((2,4-dioxothiazolidin-5-ylidene)methyl)-2-methoxyphenyl cyclopentanecarboxylate], in assay [1], the Increment % is on record as −2.32% and the PGE2 concentration was 192.6292 pg/mL. In assay [2], this compound gave an IC50 of 0.494 µM.

For the compound `COc1cc(/C=C2\SC(=O)NC2=O)ccc1OC(=O)CC1CCCC1` [Compound 34, (Z)-4-((2,4-dioxothiazolidin-5-ylidene)methyl)-2-methoxyphenyl 2-cyclopentylacetate], in assay [1], the Increment % is −70.77% and the PGE2 concentration came to 57.64 pg/mL. The same compound showed an IC50 in assay [2] of 0.0602 µM.

Regarding `COc1cc(/C=C2\SC(=O)NC2=O)ccc1OC(=O)CCC1CCCC1` [Compound 35, (Z)-4-((2,4-dioxothiazolidin-5-ylidene)methyl)-2-methoxyphenyl 3-cyclopentylpropanoate], in assay [1], the Increment % is 130.79% and the PGE2 concentration stood at 455.1278 pg/mL. In assay [2], this compound returned an IC50 of 0.0234 µM.

Regarding `COc1cc(/C=C2\SC(=O)NC2=O)ccc1OC(=O)C1CCCCC1` [Compound 36, (Z)-4-((2,4-dioxothiazolidin-5-ylidene)methyl)-2-methoxyphenyl cyclohexanecarboxylate], in assay [1], the Increment % is reported as 101.32% and the PGE2 concentration was found to be 408.196 pg/mL. The IC50 in assay [2] came out at 0.242 µM.

For `COc1cc(/C=C2\SC(=O)NC2=O)ccc1OC(=O)CC1CCCCC1` [Compound 37, (Z)-4-((2,4-dioxothiazolidin-5-ylidene)methyl)-2-methoxyphenyl 2-cyclohexylacetate], in assay [1], the Increment % was determined as 88.85% and the PGE2 concentration stood at 382.9119 pg/mL. Further, half-maximal inhibition in assay [2] (IC50) was put at 0.0278 µM.
